Key:
Assay in all cases: radiometric filter-binding kinase assay
MAPKAPK2 (human) = MAPKAPK2 (human) (UniProt P49137); details: compound 100.0 µM; ATP 20 µM
FLT1 (human) = FLT1 (human) (UniProt P17948); details: compound 100.0 µM; ATP 20 µM
NEK2 (human) = NEK2 (human) (UniProt P51955); details: compound 100.0 µM; ATP 50 µM
MAP3K11 (human) = MAP3K11 (human) (UniProt Q16584); details: compound 100.0 µM; ATP 20 µM
ROCK2 (rat) = details: compound 100.0 µM; ATP 20 µM; accession and sequence are those of the human protein
MYLK (human) = MYLK (human) (UniProt Q15746); details: compound 100.0 µM; ATP 50 µM
PRKCA (human) = PRKCA (human) (UniProt P17252); details: compound 100.0 µM; ATP 20 µM
PIM3 (human) = PIM3 (human) (UniProt Q86V86); details: compound 100.0 µM; ATP 20 µM
CDK2 CCNA2 (human) = CDK2 CCNA2 (human) (UniProt P20248+P24941); details: compound 100.0 µM; ATP 20 µM
[1] = test system: AKT2 (human), P31751 [S474D]; details: compound 100.0 µM; ATP 50 µM
STK33 (human) = STK33 (human) (UniProt Q9BYT3); details: compound 100.0 µM; ATP 50 µM
PAK6 (human) = PAK6 (human) (UniProt Q9NQU5); details: compound 100.0 µM; ATP 20 µM
PIM2 (human) = PIM2 (human) (UniProt Q9P1W9); details: compound 100.0 µM; ATP 5 µM
PIM2 (human), sequence (Q9P1W9 whole entry, looked up): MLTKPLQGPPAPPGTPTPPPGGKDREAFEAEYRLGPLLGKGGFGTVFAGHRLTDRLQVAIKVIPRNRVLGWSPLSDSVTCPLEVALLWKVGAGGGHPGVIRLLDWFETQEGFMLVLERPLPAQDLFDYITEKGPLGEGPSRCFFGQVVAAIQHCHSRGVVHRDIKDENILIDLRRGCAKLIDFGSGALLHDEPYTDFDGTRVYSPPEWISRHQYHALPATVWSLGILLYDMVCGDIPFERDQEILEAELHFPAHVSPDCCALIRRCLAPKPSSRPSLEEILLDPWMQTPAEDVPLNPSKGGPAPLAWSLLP

EEF2K (human) = EEF2K (human) (UniProt O00418); details: compound 100.0 µM; ATP 5 µM
EPHB4 (human) = EPHB4 (human) (UniProt P54760); details: compound 100.0 µM; ATP 5 µM
MKNK2 (human) = MKNK2 (human) (UniProt Q9HBH9); details: compound 100.0 µM; ATP 50 µM
MKNK2 (human), sequence (Q9HBH9 whole entry, looked up): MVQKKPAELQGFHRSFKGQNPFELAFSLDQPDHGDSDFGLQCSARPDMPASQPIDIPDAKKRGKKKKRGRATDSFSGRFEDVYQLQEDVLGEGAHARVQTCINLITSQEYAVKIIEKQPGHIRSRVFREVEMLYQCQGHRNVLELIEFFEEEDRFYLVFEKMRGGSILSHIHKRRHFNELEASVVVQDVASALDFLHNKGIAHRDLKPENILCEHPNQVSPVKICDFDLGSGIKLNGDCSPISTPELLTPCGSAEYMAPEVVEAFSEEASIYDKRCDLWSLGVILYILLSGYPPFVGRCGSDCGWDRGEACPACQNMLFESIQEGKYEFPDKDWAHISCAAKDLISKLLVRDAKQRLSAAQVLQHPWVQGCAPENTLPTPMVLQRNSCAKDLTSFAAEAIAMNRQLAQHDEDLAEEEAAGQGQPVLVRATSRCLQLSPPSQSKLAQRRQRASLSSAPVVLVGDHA

BRSK2 (human) = BRSK2 (human) (UniProt Q8IWQ3); details: compound 100.0 µM; ATP 50 µM
MAPKAPK3 (human) = MAPKAPK3 (human) (UniProt Q16644); details: compound 100.0 µM; ATP 20 µM
TBK1 (human) = TBK1 (human) (UniProt Q9UHD2); details: compound 100.0 µM; ATP 50 µM
MAPK8 (human) = MAPK8 (human) (UniProt P45983); details: compound 100.0 µM; ATP 20 µM
EPHA4 (human) = EPHA4 (human) (UniProt P54764); details: compound 100.0 µM; ATP 50 µM
EPHA4 (human), sequence (P54764 whole entry, looked up): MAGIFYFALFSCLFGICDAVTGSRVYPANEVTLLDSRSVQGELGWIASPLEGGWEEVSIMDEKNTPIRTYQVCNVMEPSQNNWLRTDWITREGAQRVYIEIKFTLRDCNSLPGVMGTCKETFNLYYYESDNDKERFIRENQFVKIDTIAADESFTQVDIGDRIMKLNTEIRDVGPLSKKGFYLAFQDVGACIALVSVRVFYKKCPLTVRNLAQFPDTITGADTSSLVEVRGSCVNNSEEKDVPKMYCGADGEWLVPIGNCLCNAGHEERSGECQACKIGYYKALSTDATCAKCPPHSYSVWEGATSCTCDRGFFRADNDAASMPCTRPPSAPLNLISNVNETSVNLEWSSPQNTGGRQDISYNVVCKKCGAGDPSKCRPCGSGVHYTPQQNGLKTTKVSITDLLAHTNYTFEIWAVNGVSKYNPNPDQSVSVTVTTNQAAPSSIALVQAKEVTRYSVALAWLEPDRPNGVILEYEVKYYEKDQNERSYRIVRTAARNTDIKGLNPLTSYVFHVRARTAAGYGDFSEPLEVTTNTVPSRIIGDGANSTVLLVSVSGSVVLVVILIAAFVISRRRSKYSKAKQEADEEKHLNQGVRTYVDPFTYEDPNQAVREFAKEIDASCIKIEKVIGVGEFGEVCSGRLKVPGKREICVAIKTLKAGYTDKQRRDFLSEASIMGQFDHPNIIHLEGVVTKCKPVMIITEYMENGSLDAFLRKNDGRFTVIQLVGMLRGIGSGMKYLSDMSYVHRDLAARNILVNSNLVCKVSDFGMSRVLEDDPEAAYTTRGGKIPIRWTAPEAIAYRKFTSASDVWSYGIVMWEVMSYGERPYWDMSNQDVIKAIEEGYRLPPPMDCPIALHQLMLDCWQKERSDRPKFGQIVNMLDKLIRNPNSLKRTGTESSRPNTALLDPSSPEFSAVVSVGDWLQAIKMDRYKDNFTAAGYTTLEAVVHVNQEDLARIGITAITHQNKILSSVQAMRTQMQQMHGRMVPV

ERBB4 (human) = ERBB4 (human) (UniProt Q15303); details: compound 100.0 µM; ATP 5 µM
PHKG1 (human) = PHKG1 (human) (UniProt Q16816); details: compound 100.0 µM; ATP 50 µM
ABL1 (human) = ABL1 (human) (UniProt P00519); details: compound 100.0 µM; ATP 5 µM
NEK6 (human) = NEK6 (human) (UniProt Q9HC98); details: compound 100.0 µM; ATP 50 µM
CSNK2A1 (human) = CSNK2A1 (human) (UniProt P68400); details: compound 100.0 µM; ATP 5 µM
MARK1 (human) = MARK1 (human) (UniProt Q9P0L2); details: compound 100.0 µM; ATP 20 µM
MARK1 (human), sequence (Q9P0L2 whole entry, looked up): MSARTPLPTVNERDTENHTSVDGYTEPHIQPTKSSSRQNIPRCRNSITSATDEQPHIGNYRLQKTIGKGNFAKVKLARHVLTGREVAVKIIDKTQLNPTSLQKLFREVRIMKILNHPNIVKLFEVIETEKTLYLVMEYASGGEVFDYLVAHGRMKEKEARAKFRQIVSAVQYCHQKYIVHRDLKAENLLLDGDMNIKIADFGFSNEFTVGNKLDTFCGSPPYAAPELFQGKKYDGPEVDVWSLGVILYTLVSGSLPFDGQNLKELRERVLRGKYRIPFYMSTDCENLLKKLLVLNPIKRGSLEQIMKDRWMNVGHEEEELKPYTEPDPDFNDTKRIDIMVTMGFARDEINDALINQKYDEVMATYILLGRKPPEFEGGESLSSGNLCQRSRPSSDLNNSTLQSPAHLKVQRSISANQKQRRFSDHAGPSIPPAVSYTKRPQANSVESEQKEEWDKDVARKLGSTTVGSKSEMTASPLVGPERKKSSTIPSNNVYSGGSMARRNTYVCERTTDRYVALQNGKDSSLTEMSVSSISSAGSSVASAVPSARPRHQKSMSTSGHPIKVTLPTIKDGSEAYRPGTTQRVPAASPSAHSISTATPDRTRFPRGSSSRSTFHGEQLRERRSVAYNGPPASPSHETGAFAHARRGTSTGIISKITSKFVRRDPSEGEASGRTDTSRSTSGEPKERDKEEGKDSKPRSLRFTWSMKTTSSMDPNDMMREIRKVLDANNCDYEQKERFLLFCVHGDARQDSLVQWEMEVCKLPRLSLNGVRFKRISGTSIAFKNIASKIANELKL

[2] = test system: RPS6KB1 (human), P23443 [T412E]; details: compound 100.0 µM; ATP 20 µM
RPS6KB1 (human), P23443 [T412E], sequence (P23443 whole entry T412E, looked up): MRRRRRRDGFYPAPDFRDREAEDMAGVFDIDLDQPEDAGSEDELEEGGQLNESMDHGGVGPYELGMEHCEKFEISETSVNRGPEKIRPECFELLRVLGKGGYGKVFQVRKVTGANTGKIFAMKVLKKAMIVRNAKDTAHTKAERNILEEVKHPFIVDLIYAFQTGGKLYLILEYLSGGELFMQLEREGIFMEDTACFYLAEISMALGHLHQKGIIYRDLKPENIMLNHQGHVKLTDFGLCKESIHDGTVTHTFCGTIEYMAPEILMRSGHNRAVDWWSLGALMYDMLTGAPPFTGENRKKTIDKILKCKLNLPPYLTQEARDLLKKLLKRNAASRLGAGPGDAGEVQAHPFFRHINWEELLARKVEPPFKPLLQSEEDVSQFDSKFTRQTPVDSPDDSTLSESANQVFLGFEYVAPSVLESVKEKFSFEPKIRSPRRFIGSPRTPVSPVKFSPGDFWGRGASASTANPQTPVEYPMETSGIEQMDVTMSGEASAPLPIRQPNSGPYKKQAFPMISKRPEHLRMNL

PIM1 (human) = PIM1 (human) (UniProt P11309); details: compound 100.0 µM; ATP 20 µM
PIM1 (human), sequence (P11309 whole entry, looked up): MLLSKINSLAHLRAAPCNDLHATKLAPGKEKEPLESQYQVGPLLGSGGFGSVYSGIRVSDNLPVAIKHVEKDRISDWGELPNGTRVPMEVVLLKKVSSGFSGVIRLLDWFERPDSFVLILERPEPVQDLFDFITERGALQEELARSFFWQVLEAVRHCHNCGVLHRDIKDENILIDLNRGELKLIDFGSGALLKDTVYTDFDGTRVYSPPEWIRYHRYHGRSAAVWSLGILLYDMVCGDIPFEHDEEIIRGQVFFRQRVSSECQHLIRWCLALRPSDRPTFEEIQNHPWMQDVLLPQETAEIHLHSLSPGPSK

AURKA (human) = AURKA (human) (UniProt O14965); details: compound 100.0 µM; ATP 5 µM
AURKA (human), sequence (O14965 whole entry, looked up): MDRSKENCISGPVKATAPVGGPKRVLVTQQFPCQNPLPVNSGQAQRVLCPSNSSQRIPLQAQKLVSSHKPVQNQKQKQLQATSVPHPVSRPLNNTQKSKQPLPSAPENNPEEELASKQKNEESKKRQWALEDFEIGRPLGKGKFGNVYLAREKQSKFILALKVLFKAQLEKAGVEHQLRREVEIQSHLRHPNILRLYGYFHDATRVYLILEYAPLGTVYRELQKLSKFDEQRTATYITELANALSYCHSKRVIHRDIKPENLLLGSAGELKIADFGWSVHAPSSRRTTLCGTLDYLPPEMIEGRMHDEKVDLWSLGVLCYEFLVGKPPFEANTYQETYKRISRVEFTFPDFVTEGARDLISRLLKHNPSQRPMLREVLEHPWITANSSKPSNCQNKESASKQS

PTK6 (human) = PTK6 (human) (UniProt Q13882); details: compound 100.0 µM; ATP 20 µM
PTK6 (human), sequence (Q13882 whole entry, looked up): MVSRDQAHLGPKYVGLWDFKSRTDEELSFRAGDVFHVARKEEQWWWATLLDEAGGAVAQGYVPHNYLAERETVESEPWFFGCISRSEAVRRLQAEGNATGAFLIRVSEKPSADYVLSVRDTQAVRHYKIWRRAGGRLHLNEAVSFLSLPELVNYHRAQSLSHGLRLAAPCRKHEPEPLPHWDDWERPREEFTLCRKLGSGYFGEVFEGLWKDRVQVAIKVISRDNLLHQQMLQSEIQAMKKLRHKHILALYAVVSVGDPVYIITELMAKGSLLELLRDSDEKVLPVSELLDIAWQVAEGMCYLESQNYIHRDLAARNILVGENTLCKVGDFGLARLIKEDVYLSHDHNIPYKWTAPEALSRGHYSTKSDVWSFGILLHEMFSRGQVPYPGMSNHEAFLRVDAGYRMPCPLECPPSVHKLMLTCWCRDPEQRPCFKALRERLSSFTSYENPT

MAPK13 (human) = MAPK13 (human) (UniProt O15264); details: compound 100.0 µM; ATP 5 µM
CaMK1 (human) = CaMK1 (human) (UniProt Q14012); details: compound 100.0 µM; ATP 50 µM
DYRK3 (human) = DYRK3 (human) (UniProt O43781); details: compound 100.0 µM; ATP 5 µM
MST4 (human) = MST4 (human) (UniProt Q9P289); details: compound 100.0 µM; ATP 20 µM
MELK (human) = MELK (human) (UniProt Q14680); details: compound 100.0 µM; ATP 50 µM
STK16 (human) = STK16 (human) (UniProt O75716); details: compound 100.0 µM; ATP 50 µM
RPS6KA1 KD1 KD2 (human) = RPS6KA1 KD1 KD2 (human) (UniProt Q15418); details: compound 100.0 µM; ATP 50 µM
RPS6KA1 KD1 KD2 (human), sequence (Q15418 whole entry, looked up): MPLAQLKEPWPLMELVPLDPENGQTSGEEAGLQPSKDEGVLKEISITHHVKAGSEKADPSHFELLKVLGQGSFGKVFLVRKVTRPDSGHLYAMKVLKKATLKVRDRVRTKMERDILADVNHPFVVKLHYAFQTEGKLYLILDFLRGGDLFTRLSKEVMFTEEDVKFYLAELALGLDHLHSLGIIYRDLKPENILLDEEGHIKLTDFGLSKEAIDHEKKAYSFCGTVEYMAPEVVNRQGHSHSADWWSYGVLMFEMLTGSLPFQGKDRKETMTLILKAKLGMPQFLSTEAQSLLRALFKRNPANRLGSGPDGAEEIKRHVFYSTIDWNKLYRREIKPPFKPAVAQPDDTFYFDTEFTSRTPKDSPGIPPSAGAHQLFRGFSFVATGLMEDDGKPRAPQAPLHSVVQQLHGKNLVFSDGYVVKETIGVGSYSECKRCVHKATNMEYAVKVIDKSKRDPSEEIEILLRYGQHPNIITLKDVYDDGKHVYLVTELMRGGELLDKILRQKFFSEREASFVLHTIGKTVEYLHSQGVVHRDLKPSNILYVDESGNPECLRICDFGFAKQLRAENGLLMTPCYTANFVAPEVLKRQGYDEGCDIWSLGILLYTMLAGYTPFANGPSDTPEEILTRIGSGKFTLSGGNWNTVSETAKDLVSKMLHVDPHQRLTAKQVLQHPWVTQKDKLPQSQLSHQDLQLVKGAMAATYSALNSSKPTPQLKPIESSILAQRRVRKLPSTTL

MINK1 (human) = MINK1 (human) (UniProt Q8N4C8); details: compound 100.0 µM; ATP 50 µM
TEK (human) = TEK (human) (UniProt Q02763); details: compound 100.0 µM; ATP 20 µM

Compound | inhibition (MAPKAPK2 (human)) [%] | inhibition (FLT1 (human)) [%] | inhibition (NEK2 (human)) [%] | inhibition (MAP3K11 (human)) [%] | inhibition (ROCK2 (rat)) [%] | inhibition (MYLK (human)) [%] | inhibition (PRKCA (human)) [%] | inhibition (PIM3 (human)) [%] | inhibition (CDK2 CCNA2 (human)) [%] | inhibition [1] [%] | inhibition (STK33 (human)) [%] | inhibition (PAK6 (human)) [%] | inhibition (PIM2 (human)) [%] | inhibition (EEF2K (human)) [%] | inhibition (EPHB4 (human)) [%] | inhibition (MKNK2 (human)) [%] | inhibition (BRSK2 (human)) [%] | inhibition (MAPKAPK3 (human)) [%] | inhibition (TBK1 (human)) [%] | inhibition (MAPK8 (human)) [%] | further results
Nc1nc2cnc(-c3ccccc3)cn2n1 | 56 | 82 | 77 | 89 | 52 | 19 | 2 | 55 | 54 | 32 | 20 | 36 | 16 | 36 | 56 | 66 | 28 | 40 | 72 | 30 | inhibition (EPHA4 (human)): 42%; inhibition (ERBB4 (human)): 83%; inhibition (PHKG1 (human)): 83%; inhibition (ABL1 (human)): 72%; inhibition (NEK6 (human)): 1%; inhibition (CSNK2A1 (human)): 55%; inhibition (MARK1 (human)): 0%; inhibition [2]: 9%; inhibition (PIM1 (human)): 30%; inhibition (AURKA (human)): 52%; inhibition (PTK6 (human)): 53%; inhibition (MAPK13 (human)): 18%; inhibition (CaMK1 (human)): 41%; inhibition (DYRK3 (human)): 76%; inhibition (MST4 (human)): 41%; inhibition (MELK (human)): 13%; inhibition (STK16 (human)): 7%; inhibition (RPS6KA1 KD1 KD2 (human)): 34%; inhibition (MINK1 (human)): 68%; inhibition (TEK (human)): 39%
CC(C)(C)Nc1c(C2CC2)nc2[nH]cnn12 | 0 | 12 | 0 | 0 | 2 | 14 | 0 | 0 | 33 | 31 | 0 | 0 | 15 | 18 | 19 | 9 | 26 | 10 | 1 | 0 | inhibition (EPHA4 (human)): 9%; inhibition (ERBB4 (human)): 19%; inhibition (PHKG1 (human)): 6%; inhibition (ABL1 (human)): 0%; inhibition (NEK6 (human)): 0%; inhibition (CSNK2A1 (human)): 9%; inhibition (MARK1 (human)): 0%; inhibition [2]: 0%; inhibition (PIM1 (human)): 11%; inhibition (AURKA (human)): 16%; inhibition (PTK6 (human)): 25%; inhibition (MAPK13 (human)): 0%; inhibition (CaMK1 (human)): 22%; inhibition (DYRK3 (human)): 7%; inhibition (MST4 (human)): 0%; inhibition (MELK (human)): 0%; inhibition (STK16 (human)): 0%; inhibition (RPS6KA1 KD1 KD2 (human)): 3%; inhibition (MINK1 (human)): 0%; inhibition (TEK (human)): 9%
